Experimental data as given in BindingDB's records for patent US20240109900 (IRBM, 2024).

Each molecule was assayed against T1, Tyrosine-protein phosphatase non-receptor type 11 (Homo sapiens, UniProt Q06124) (assay: SHP2 Inhibition Enzymatic Assay).
T1 sequence (Q06124 whole entry): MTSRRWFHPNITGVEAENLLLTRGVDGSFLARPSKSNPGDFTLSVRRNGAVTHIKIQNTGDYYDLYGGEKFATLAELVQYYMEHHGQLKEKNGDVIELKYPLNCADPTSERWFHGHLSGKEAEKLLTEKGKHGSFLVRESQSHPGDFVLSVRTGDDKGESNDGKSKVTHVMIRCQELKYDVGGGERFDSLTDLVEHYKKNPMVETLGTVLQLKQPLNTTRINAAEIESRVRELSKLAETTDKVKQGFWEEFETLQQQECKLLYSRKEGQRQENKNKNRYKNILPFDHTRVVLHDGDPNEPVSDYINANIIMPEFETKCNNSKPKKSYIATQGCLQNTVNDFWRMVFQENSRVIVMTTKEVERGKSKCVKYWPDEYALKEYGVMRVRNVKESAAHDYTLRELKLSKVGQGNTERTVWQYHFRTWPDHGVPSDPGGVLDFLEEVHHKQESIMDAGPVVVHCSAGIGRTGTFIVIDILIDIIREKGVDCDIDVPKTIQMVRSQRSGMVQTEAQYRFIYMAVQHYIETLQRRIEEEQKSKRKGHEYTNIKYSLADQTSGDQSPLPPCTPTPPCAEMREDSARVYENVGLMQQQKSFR
Protocol: Assay volume of 20 μL/well was assembled in 384 well black polystyrene low-binding microplates (Greiner), using the following buffer: 60 mM HEPES pH 7.2, 75 mM NaCl, 75 mM KCl, 1 mM EDTA pH 8, 0.05% tween-20, 5 mM DTT. The SHP-2 enzyme (synthetized by Origene, Met1-Leu525, cat #TP750155) was used at a final concentration of 0.5 nM. […] SHP2 was then added together with the IRS1 peptide. 30 min post incubation, the DiFMUP substrate was added to the reaction and incubated 30 min at room temperature. […] The fluorescence was detected by a microplate reader (Envision, PerkinElmer) according to the DiFMUP excitation and emission wavelength. The lower the fluorescence the higher the SHP2 inhibition. […] The percentage inhibition is fitted against the compound dilutions with a four-parameter logistic regression.

IC50, < 500 nM:
Cc1csc([C@@]2(CN)[C@@H]3CN(c4cnc(Sc5ccnc(-n6cccn6)c5Cl)cn4)C[C@@H]32)n1 [US20240109900, Example 520]
Cc1csc([C@@]2(CN)[C@@H]3CCN(c4cnc5c(-c6ccc(F)c7ncccc67)c[nH]c5n4)C[C@@H]32)n1 [US20240109900, Example 502]
N#CNC(=O)c1ccc(-c2n[nH]c3nc(N4CC[C@@H]5[C@H](C4)[C@@]5(CN)c4ccccc4F)cnc23)c(Cl)c1 [US20240109900, Example 310]
Cc1c(-c2n[nH]c3nc(N4CC[C@@H]5[C@H](C4)[C@@]5(CN)c4ccccc4F)cnc23)ccc2c1ncn2C [US20240109900, Example 318]
NC[C@]1(c2cc(F)ccc2F)[C@@H]2CCN(c3cnc4c(-c5cccc6c5CCC(=O)N6)n[nH]c4n3)C[C@@H]21 [US20240109900, Example 531]
NC[C@]1(c2ccsn2)[C@@H]2CN(c3cnc4c(-c5ccc6nn(C(F)F)cc6c5Cl)n[nH]c4n3)C[C@@H]21 [US20240109900, Example 468]
COc1nccc2cc(-c3n[nH]c4nc(N5CC[C@@H]6[C@H](C5)[C@@]6(CN)c5ccccc5F)cnc34)ccc12 [US20240109900, Example 352]
NCC1(c2ccccc2F)C2CCN(c3cc4nc(Sc5ccnc(N)c5Cl)cnc4[nH]3)CC21 (centres undefined) [US20240109900, Example 59]
Cc1csc([C@@]2(CN)[C@@H]3CN(c4cnc5c(-c6ccnc(C)c6F)n[nH]c5n4)C[C@@H]32)n1 [US20240109900, Example 477]
CN1CCOc2ccc(-c3n[nH]c4nc(N5CC[C@@H]6[C@H](C5)[C@@]6(CN)c5ccccc5F)cnc34)c(Cl)c21 [US20240109900, Example 321]
Cc1csc([C@@]2(CN)[C@@H]3CN(c4cnc5c(-c6ccnc(-n7cccn7)c6Cl)n[nH]c5n4)C[C@@H]32)n1 [US20240109900, Example 516]
Cc1csc([C@@]2(CN)[C@@H]3CN(c4cnc5c(-c6ccc7c(c6)CC(=O)N7C)n[nH]c5n4)C[C@@H]32)n1 [US20240109900, Example 513]
Cc1cc(C(N)=O)ncc1-c1n[nH]c2nc(N3CC[C@@H]4[C@H](C3)[C@@]4(CN)c3ccccc3F)cnc12 [US20240109900, Example 307]
NC[C@]1(c2ccccc2F)[C@@H]2CCN(c3cnc4c(-c5ccc(-c6cc(F)c(O)c(F)c6)cc5Cl)n[nH]c4n3)C[C@@H]21 [US20240109900, Example 313]
Cc1csc([C@@]2(CN)[C@@H]3CN(c4nc(C)n(-c5cccc(Cl)c5Cl)c(=O)c4Cl)C[C@@H]32)n1 [US20240109900, Example 526]
NC[C@]1(c2ccccc2F)[C@@H]2CCN(c3cnc4c(-c5ccc(F)c6c(=O)[nH]ccc56)n[nH]c4n3)C[C@@H]21 [US20240109900, Example 314]
NC[C@]1(c2ccccc2F)[C@@H]2CCN(c3cnc4c(-c5ccc(CC(N)=O)cc5Cl)n[nH]c4n3)C[C@@H]21 [US20240109900, Example 328]
NC[C@]1(c2ccccc2F)[C@@H]2CCN(c3nc4nc(Sc5ccnc(-n6cccn6)c5Cl)cnc4[nH]3)C[C@@H]21 [US20240109900, Example 342]
Cc1nc2ccc(-c3n[nH]c4nc(N5CC[C@@H]6[C@H](C5)[C@@]6(CN)c5ccccc5F)cnc34)c(Cl)c2n1C [US20240109900, Example 358]
NC[C@]1(c2ccccc2F)[C@@H]2CCN(c3cnc4c(-c5ccc6nn(CCO)cc6c5Cl)n[nH]c4n3)C[C@@H]21 [US20240109900, Example 365]
NC[C@]1(c2ccccc2F)[C@@H]2CCN(c3cnc4c(-c5ccc6c(N)nccc6c5)n[nH]c4n3)C[C@@H]21 [US20240109900, Example 319]
CC(C)(C)C#Cc1n[nH]c2nc(N3CC[C@@H]4[C@H](C3)[C@@]4(CN)c3ccccc3F)cnc12 [US20240109900, Example 366]
Cc1c(-c2n[nH]c3nc(N4CC[C@@H]5[C@H](C4)[C@@]5(CN)c4cc(F)cc(F)c4)cnc23)ccc2nn(C)cc12 [US20240109900, Example 308]
NC[C@]1(c2ccccc2F)[C@@H]2CCN(c3cnc4c(-c5ccc(-c6nsc(O)n6)cc5Cl)n[nH]c4n3)C[C@@H]21 [US20240109900, Example 379]
